Test results taken from US11833144B2, “Treating autoimmune disease” (Mayo Foundation for Medical Education and Research, priority 2020, dated 2023).

How the values were obtained:
human B cells = assay: Human naive B cell proliferation (thymidine incorporation) and CD27 expression; format: cell-based
Description: PBMCs were isolated from the medical waste following apheresis collection of platelets. Briefly, blood was diluted 1:3 using PBS. The diluted blood was then overlaid with Ficoll-Paque PLUS density gradient medium (GE Healthcare). The gradient was centrifuged at 400 g with no brake for 25 minutes at room temperature. The PBMC interphase layer was collected, washed with PBS with 0.1% BSA/2 mM of EDTA. Naive B cells (CD19^+CD27^−IgD^+) were enriched using Human naive B cell negative selection kit (Stemcell Technologies). Mouse B cells were isolated from pooled single cell suspensions of spleen and peripheral lymph nodes using CD19 Microbeads (Miltenyi) or Mouse B cell Isolation Kit (Stemcell Technologies). B cells were stimulated with LPS (10 μg/mL; Sigma-Aldrich) and recombinant IL-4 cytokine (10 ng/mL; Tonbo Bioscience) with or without SCD inhibitor SSI-4, and proliferation was measured by dilution of CellTrace Violet proliferation dye (Thermo Fisher Scientific). B cells were also stimulated with anti-IgM (10 μg/mL; Jackson ImmunoResearch), anti-CD40 (10 μg/mL; BioXcell) and IL-4 (10 ng/mL; Tonbo Bioscience), or TLR ligand CpG (2.5 μM; IDT), recombinant IL-4 and IL-5 (10 ng/mL; Tonbo Bioscience) cytokines. To test the function of monounsaturated and saturated fatty acids, B cells were activated in presence of exogenous fatty acid-BSA conjugate. Palmitoleic acid (NU-CHEK PREP, INC), palmitic acid (NU-CHEK PREP, INC), stearic acid (NU-CHEK PREP, INC) were conjugated with fatty acid free BSA (Sigma-Aldrich) as described elsewhere (Wang et al., Immunity 35:871-882 (2011)). Human B cells were activated with CpG OND2006 (2.5 μM; IDT), recombinant human cytokine IL-10 ([…]; Peprotech), IL-15 (10 ng/mL; Peprotech), IL-4 (10 ng/mL; Biolegend), IL-2 (10 unit/mL) and anti-human CD40 (1 μg/mL; BioXcell). Human B cell proliferation was measured by ^3[H]-thymidine incorporation (1 μCi/mL) (American Radiolabeled Chemicals).

MRL/MpJ-Faslpr mice = assay: MRL/MpJ-Faslpr lupus mouse model fed SSI-4 chow; format: in vivo
Description: MRL/MpJ-Fas^lpr mice and B6 (C)-H2-Ab1^bm12/KhEgJ (bm12) mice were purchased from the Jackson Laboratory. Six weeks old female MRL/MpJ-Fas^lpr mice were treated with control chow or SSI-4 chow (60 mg/kg, on a two-week SSI-4 chow/control-chow alternating schedule) ad libitum for 15 weeks. Proteinuria was measured using Albustix strips (Siemens). Kidney histology was done using routine H&E staining. Thirty million splenocytes from 8 weeks old B6 (C)-H2-Ab1^bm12/KhEgJ (bm12) mice were transferred into C57BL/6 mice intraperitoneally. Mice were fed with control chow or SSI-4 chow (30 mg/kg, on an one-week SSI-4 chow/control-chow alternating schedule) ad libitum for 8 weeks.
For analysis of surface markers, cells were stained in PBS containing 1% (w/v) bovine serum albumin on ice for 30 minutes, with anti-B220 (RA3-6B2, Biolegend), anti-CD4 (GK1.5, Biolegend), anti-CD138 (281-2, Biolegend), anti-PD-1 (J43, ThermoFisher). CXCR5 was stained with biotinylated anti-CXCR5 (2G8) followed by staining with streptavidin-conjugated PE (both from BD Biosciences). Cell viability was assessed using the Fixable Dye Ghost 510 (Tonbo Bioscience) following the manufacturer's protocol. Flow cytometry was performed on the LSR II, LSR Fortessa (BD Biosciences) or Attune NxT (ThermoFisher) cytometers, and analysis was performed using FlowJo software (Tree Star).

SCD = assay: Fatty acid composition of fresh and activated B cells by LC-MS/MS; format: cell-based, mouse; conditions: 100 nM SSI-4, 48 hours
GFP-LC3 = assay: Flow cytometry of GFP-LC3 in activated B cells from GFP-LC3 reporter mouse; format: cell-based; conditions: SSI-4 ex vivo
Description: (§1) For analysis of surface markers, cells were stained in PBS containing 1% (w/v) bovine serum albumin on ice for 30 minutes, with anti-IgG1 (RMG1-1, Biolegend), anti-CD19 (ID3, Biolegend) anti-B220 (RA3-6B2, Biolegend), anti-CD4 (GK1.5, Biolegend), anti-CD8 (53-6.7, Biolegend), anti-CD25 (PC16, Biolegend), anti-GL7 (GL-7, Biolegend), anti-CD95 (Jo2, BD Biosciences), anti-CD138 (281-2, Biolegend), anti-IgD (11-26c.2a, Biolegend), anti-PD-1 (J43, ThermoFisher), anti-IgM (II/41, ThermoFisher). Antigen specific GC response was detected with tetramer NP-phycoerythrin conjugated with PE (Biosearch Technologies). CXCR5 was stained with biotinylated anti-CXCR5 (2G8) followed by staining with streptavidin-conjugated PE (both from BD Biosciences). Cell viability was assessed using the Fixable Dye Ghost 510 (Tonbo Bioscience) or Annexin V cell apoptosis kit with 7-AAD (ThermoFisher) following the manufacturer's protocol. Phosflow staining for phospho-S6 (S235/236) was performed using Phosflow Fix/Perm kit (BD Biosciences). Mitochondrial potential was measured by staining with 20 nM TMRM (ThermoFisher) following manufacturer's instructions. Flow cytometry was performed on the LSR II, LSR Fortessa (BD Biosciences) or Attune NxT (ThermoFisher) cytometers, and analysis was performed using FlowJo software (Tree Star).

[1] = test system: influenza A infected mice; assay: Influenza A/PR8 infection of mice fed SSI-4 chow; format: in vivo, mouse
Description: For influenza virus infection, influenza A/PR8 strain (200 pfu/mouse) were diluted in FBS-free DMEM media on ice and inoculated in anesthetized mice through intranasal route. Sera were collected before and two weeks after infection for fatty acid component measurement. The mice were fed with control chow or SSI-4 chow for 1 week following influenza infection before switching to regular diet. The mediastinal lymph nodes were analyzed for GC B cell formation and Tfh differentiation. Mice were bred and maintained under specific pathogen-free conditions in Department of Comparative Medicine of Mayo Clinic with IACUC approval.
as §1
For NP specific antibodies detection in sera, 96-well plates (2596; Costar) were coated with 2 μg/mL NP23-BSA in PBS overnight. Plates were washed twice (0.05% Tween 20 in PBS), blocked with 5% blocking protein (Bio-Rad) for 1 hour, and washed twice, and serially diluted serum samples were added for 1.5 hours at 37° C. Plates were washed four times and horseradish peroxidase (HRP)-conjugated detection Abs for IgG (Bethyl Laboratories) and IgG1 (Bethyl Laboratories) were added for 1 hour at RT, washed four times, and tetramethylbenzidine (TMB) substrate was added. Reaction was stopped using 2N H2SO4 and read at 450 nm. Similarly, antibodies IgG, IgG1 and IgG2c specific to influenza A/PR8 strain in sera were measured with influenza virus coated plate.

Row | SMILES | restoration of human B cell proliferation and CD27 expression upon SSI-4 treatment (human B cells; SSI-4 (10 nM) plus exogenous OA) | human B cell activation measured by CD27 expression, exogenous OA alone (human B cells; flow cytometry MFI) | human B cell proliferation, exogenous OA alone (human B cells; thymidine incorporation) | kidney histology (H&E) (MRL/MpJ-Faslpr mice; SSI-4 chow 60 mg/kg, alternating schedule) | proteinuria (MRL/MpJ-Faslpr mice; SSI-4 chow 60 mg/kg, two-week alternating schedule, from 6 weeks old, measured from 8 weeks old) | B cell proliferation measured by Ki-67 expression (MRL/MpJ-Faslpr mice; flow cytometry) | B cell metabolic activity measured by expression of CD98 (MRL/MpJ-Faslpr mice; flow cytometry MFI) | accumulation of MUFAs (PO, OA) in activated B cells (SCD) | GFP-LC3 expression (MFI) (GFP-LC3) | production of anti-influenza total IgG, IgG1 and IgG2c in sera ([1]; ELISA) | body weight loss in influenza A infected mice ([1]; SSI-4 chow for 1 week following infection vs control chow) | frequency of GC B cells in mediastinal lymph nodes ([1]; day 11 following infection) | CD138+ plasmablast formation ([1]; influenza infection) | expression of Bcl6 in B cells ([1]; mediastinal lymph nodes)
1 | CCCCCCCC/C=C\CCCCCCCC(=O)O [OA, oleic acid] | restored B cell proliferation and CD27 expression | promoted | promoted human B cell proliferation | – | – | – | – | – | – | – | – | – | – | –
2 | CNC(=O)c1ccnc(NC(=O)N2CCC(Oc3ccccc3Cl)CC2)c1 [SSI-4, 2-{[4-(2-Chlorophenoxy)piperidine-1-carbonyl]amino}-N-methylpyridine-4-carboxamide] | – | – | – | reduced immune cell infiltration and inflammation | no increase of proteinuria | significantly reduced | significantly reduced | largely reversed it | higher LC3 expression | significantly dampened | substantially more severe weight loss | significantly reduced | did not affect | significantly reduced
